inhibition, inhibition in vivo and ED50 data for eight compounds are collected here from patent US5098613A, “Anti-inflammatory agents” (Eli Lilly and Company, priority 1990, dated 1992).

Usually ED50 stands for the dose at which the effect has come halfway, by size or by number of responders. A high value points to weaker potency.

Assay [1] concerns IL-1 induced T-cell Proliferation. In words: Anti IL-1 Activity (Thymocyte Assay): suppression of IL-1 induced T-cell proliferation. Format: cell-based, C3H/HeJ male mice. To be noted: mouse thymocytes, 48 hours, read-out: Percent T-cell suppression; for inhibition at 1 µg/mL: 1 mcg/ml; for inhibition at 10 µg/mL: 10 mcg/ml. The procedure:
Thymus from 3-4 week old C3H/HeJ male mice and were passed through a #100 mesh screen to make a single cell suspension. The cells were suspended in RPMI-1640 supplemented with 2×10^-5 M 2-mercaptoethanol, 3% fetal calf serum, and 1% Penicillin/Streptomycin. The cell suspension was placed in a tissue culture flask and incubated at 37° C. in 5% carbon dioxide in air for 1-2 hours. The thymocytes were decanted, leaving adherent cells behind, and the liquid was centrifuged at 1400 rpm for 10 minutes. After decanting the supernatant, the cells were resuspended and counted with a hemocytometer. The density was adjusted to […]. Fifty μ1 of the suspension were added to each well of a 96-well microtiter plate, followed by the addition of 25 μl of PHA and 25 μl IL-1 (1:25 dilution of a 10 mcg/ml stock solution) per well.
Each compound to be tested was dissolved in 30% DMSO/70% PBS to make a stock solution of 1 mg/ml. Fifteen μl of each compound were added to 300 μl of media in the serial dilution plate. Twenty-five μl of each drug were added to the test plate in quadruplicate wells across the plate. The plate was incubated at 37° C. in 5% carbon dioxide in air for 48 hours. The wells were pulsed with tritiated thymidine (5 μCi.well) for 4 hours before harvesting on a Skatron cell harvester. The filter discs were placed in mini-vials, scintillation fluid (Tol-Pop) was added, and the vials counted. The percent of counts for each vial compared with control samples wherein no compound was added (vehicles only) was determined for each compound and are reported as Table III below as the percent T-ce1 suppression.

For assay [2], the target named is T1, leukotriene B4 specific receptor on the membrane of human neutrophils (Homo sapiens, UniProt Q15722).
T1 construct: incubating neutrophils (1×10^7 cells) with 0.1-0.2 nM ^3 H-LTB4; endogenous in cells; host or cells: human peripheral blood neutrophils (buffy coats of two blood donors)
T1 sequence (Q15722 whole entry): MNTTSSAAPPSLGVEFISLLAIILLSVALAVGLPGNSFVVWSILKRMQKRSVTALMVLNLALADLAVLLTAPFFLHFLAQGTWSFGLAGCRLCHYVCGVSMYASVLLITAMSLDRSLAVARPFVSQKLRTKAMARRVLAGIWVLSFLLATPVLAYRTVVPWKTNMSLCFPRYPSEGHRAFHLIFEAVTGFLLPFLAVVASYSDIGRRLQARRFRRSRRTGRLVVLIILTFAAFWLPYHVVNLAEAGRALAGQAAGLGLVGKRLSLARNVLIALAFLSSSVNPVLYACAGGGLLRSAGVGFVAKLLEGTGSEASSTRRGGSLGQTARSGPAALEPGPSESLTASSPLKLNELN
In words: Inhibition of Binding of ^3 H-LTB4 to Peripheral Human Neutrophils. Conditions: 4° C., 10 minutes; for inhibition at 10 µM: drug concentration 10^-5 M, read-out: LTB4 Binding Inhibition; for inhibition at 1 µM: drug concentration 10^-6 M. A digest of the protocol:
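Freshly isolated human donor neutrophils (1×10^7 cells) in HBSS/0.1% ovalbumin pH 7.3 were incubated with 0.1-0.2 nM ^3H-LTB4 and compound at 1×10^-5 or 1×10^-6 M for 10 min at 4 °C. Bound ligand was separated by centrifugation through phthalate oil and counted, then corrected for nonspecific binding and compared with compound-free control.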

For assay [3], the system named is Arachidonic Acid Induced Ear Edema. Briefly: Arachidonic Acid-Induced Ear Edema Assay. Type of assay: in vivo, Female BALB/C mice. Conditions: Mus musculus, 1 h, topical, one hour prior to arachidonic acid, read-out: Percent Inhibition of Ear Swelling; for inhibition in vivo at 1 %: 1% in ethanol gel; for inhibition in vivo at 0.05 %: 0.05% in ethanol gel. On the procedure:
Female BALB/C mice (Charles River; 18-20 rams) were divided into groups of five. Arachidonic acid was dissolved in ethanol at a concentration of 200 mg/ml. Each mouse received 2 mg/ear of arachidonic acid on the inner surface of the right ear. This dose of phlogistic was applied by an automatic pipette in 10 mcl volumes. The left ear (control) received ethanol. Drugs were applied topically in an ethanol-based gel to the entire outer surface of both ears one hour prior to arachidonic acid application. Edema was measured by the increase in ear weight. An hour after arachidonic acid solution or vehicle was applied, an ear sample of 7 mm in diameter was obtained from both ears. Ear edema was calculated by subtracting the […], dividing by the weight of the left/Control ear, and averaging the results for each group of mice according to compound and concentration.

Assay [4] relates to inflammation created by injecting carrageenin into the hind paws of rats. In words: Carrageenin Assay. Format: in vivo. Conditions: Rattus norvegicus, ip, 50 mg/kg i.p., prior to carrageenin injection, read-out: Percent Inhibition (Antiinflammatory Activity in the Carrageenin Assay). On the procedure: The compounds were evaluated for antiinflammatory activity in the test method described by C. A. Winter, Proc. Soc. Exp. Biol. Med., 111, 544 (1962). In this test, inflammation is created by injecting carrageenin into the hind paws of rats. Test compounds are administered prior to injection to determine percent inhibition of the subsequent inflammation in comparison with control animals.

Assay [5] relates to shock after E. coli LPS and galactosamine (GALN) challenge. In words: Mouse Endotoxin Shock Assay. Format: in vivo, C57BL/6 male mice. To be noted: LPS/GALN s.c. challenge, results 48 hours after challenge, Reed Muench Method. On the procedure:
Compounds were given to 18-20 g C57BL/6 male mice using various regimens depending upon mode of administration. Control animals received corresponding vehicles only. The mice were then challenged with 0.2 ml of chromatographically purified 0111:B4 E. coli LPS and galactosamine hydrochloride (GALN) given subcutaneously (back of the neck). GALN was given at an approximate dose of 500 mg/kg whereas the LPS dose ranged between 0.3-1.2 μg/mouse (15-60 μg/k9). Control animals generally die of shock 7-15 hours after administration of LPS/GALN although a small number (0-5%) may die 24-48 hours after such administration. Calculation of the EDso for each compound was performed using the Reed Muench Method for results obtained 48 hours after challenge.

As to `CCc1cc(C(C)=O)c(O)cc1OCCCCCC[S+](C)[O-]` (centres unmarked) [Example 82, 2-Hydroxy-4-[6-(methylsulfinyl)hexyl-oxy]-5-ethylacetophenone], in assay [1], the inhibition at 1 µg/mL is 21% and the inhibition at 10 µg/mL was found to be 88%. Besides, in assay [2], the inhibition at 10 µM amounted to 91% and the inhibition at 1 µM is 50%. In addition, in assay [3], the inhibition in vivo at 1 % was 9%. In assay [4], the inhibition in vivo at 50 mg/kg is 31%. For the same compound, the ED50 in assay [5] was > 50 mg/kg.

For `C=CCc1cc(C(C)=O)c(O)cc1OCc1ccccc1C#N` [Example 49, 2-[(4-Acetyl-5-hydroxy-2-allylphenoxy)-methyl]benzonitrile], in assay [2], the inhibition at 10 µM was found to be 47% and the inhibition at 1 µM came out at 15%. In addition, the inhibition in vivo at 0.05 % in assay [3] turned out to be 31%. Further, the inhibition in vivo at 50 mg/kg in assay [4] turned out to be 43%. Moreover, the ED50 in assay [5] is > 50 mg/kg.

For the compound `CCc1cc(C(C)=O)c(O)cc1OCCCCCC(C)(C)C#N` [Example 68, 4-(6-Cyano-6-methylheptyloxy)-5-ethyl-2-hydroxyacetophenone], in assay [1], the inhibition at 1 µg/mL is 13% and the inhibition at 10 µg/mL came out at 99%. Moreover, in assay [2], the inhibition at 10 µM was 84% and the inhibition at 1 µM came to 53%. For the same compound, in assay [3], the inhibition in vivo at 1 % amounted to 46%. In addition, the inhibition in vivo at 50 mg/kg in assay [4] was 33%. Further, in assay [5], the ED50 was > 50 mg/kg.

Take `C=CCc1cc(C(C)=O)c(O)cc1OCc1ccc(C#N)cc1` [Example 48, 4[(4-Acetyl-5-hydroxy-2-allylphenoxy)-methyl]benzonitrile]: in assay [2], the inhibition at 10 µM was found to be 22% and the inhibition at 1 µM was 28%. Further, the inhibition in vivo at 0.05 % in assay [3] was 13.6%. For the same compound, the inhibition in vivo at 50 mg/kg in assay [4] worked out at 30%. In addition, in assay [5], the 50% effective dose (ED50) is 18.6 mg/kg.

For `CCc1cc(C(C)=O)c(O)cc1OCCCCc1nnnn1C` [Example 122, 2-Hydroxy-4-[4-(1-methyl-lH-tetrazol-5-yl)butoxy]-5-ethylacetophenone], in assay [1], the inhibition at 1 µg/mL was determined as 37% and the inhibition at 10 µg/mL is 87%. In assay [2], the inhibition at 10 µM was 66% and the inhibition at 1 µM worked out at 24%. Also, in assay [3], the inhibition in vivo at 1 % came out at 10%. Also, in assay [4], the inhibition in vivo at 50 mg/kg was 53%. Also, the 50% effect level in assay [5] (ED50) was put at a dose of 42 mg/kg.

`CCc1cc(C(C)=O)c(O)cc1OCCCCCCS(C)(=O)=O` [Example 83, 2-Hydroxy-4-[6-(methylsulfonyl)hexyl-oxy]-5-ethylacetophenone]: in assay [1], the inhibition at 1 µg/mL was 29% and the inhibition at 10 µg/mL stood at 43%. In assay [2], the inhibition at 10 µM came out at 98% and the inhibition at 1 µM came to 61%. Further, the inhibition in vivo at 0.028 % in assay [3] (0.028% in ethanol gel) was 59%. Further, the inhibition in vivo at 50 mg/kg in assay [4] was 26%. Further, the ED50 in assay [5] was > 50 mg/kg.

Take `C=CCc1cc(C(C)=O)c(O)cc1OCc1cccc(C)c1` [Example 51, 2-Hydroxy-4-(3-methylbenzyloxy)-5-allyl-acetophenone]: in assay [2], the inhibition at 10 µM stood at 24% and the inhibition at 1 µM stood at 32%. Also, in assay [3], the inhibition in vivo at 0.05 % turned out to be 43%. Besides, in assay [3] (0.1% in ethanol gel), the inhibition in vivo at 0.1 % was determined as 31%. Further, the inhibition in vivo at 50 mg/kg in assay [4] worked out at 79%. In addition, the ED50 in assay [5] came to 27 mg/kg.

Take `CCc1cc(C(C)=O)c(O)cc1OCCCCCC(C)(C)c1nn[nH]n1` [Example 108, 5-Ethyl-2-hydroxy-4-[6-methyl-6-(1H-tetrazol5-yl)heptyloxy]acetophenone]: in assay [2], the inhibition at 10 µM is 105% and the inhibition at 1 µM was 96%. Also, the inhibition at 0.1 µM in assay [2] (drug concentration 10^-7 M) came to 60%. Further, the inhibition in vivo at 1 % in assay [3] was 60%. The inhibition in vivo at 50 mg/kg in assay [4] was 61%. The ED50 in assay [5] is > 50 mg/kg.
